{
  "source": "patent US20260053921A1",
  "about": "“A MULTIPLEXED RNA REGULATION PLATFORM FOR PRIMARY IMMUNE CELL ENGINEERING” (The Board of Trustees of the Leland Stanford Junior …, priority 2022, published 2026)",
  "molecules": {"B1": {"name": "RfxCas13d: Ruminococcus flavefaciens Cas13d, SEQ ID NO: 1 (protein)", "chain": "MIEKKKSFAKGMGVKSTLVSGSKVYMTTFAEGSDARLEKIVEGDSIRSVNEGEAFSAEMADKNAGYKIGNAKFSHPKGYAVVANNPLYTGPVQQDMLGLKETLEKRYFGESADGNDNICIQVIHNILDIEKILAEYITNAAYAVNNISGLDKDIIGFGKFSTVYTYDEFKDPEHHRAAFNNNDKLINAIKAQYDEFDNFLDNPRLGYFGQAFFSKEGRNYIINYGNECYDILALLSGLRHWVVHNNEEESRISRTWLYNLDKNLDNEYISTLNYLYDRITNELTNSFSKNSAANVNYIAETLGINPAEFAEQYFRFSIMKEQKNLGFNITKLREVMLDRKDMSEIRKNHKVFDSIRTKVYTMMDFVIYRYYIEEDAKVAAANKSLPDNEKSLSEKDIFVINLRGSFNDDQKDALYYDEANRIWRKLENIMHNIKEFRGNKTREYKKKDAPRLPRILPAGRDVSAFSKLMYALTMFLDGKEINDLLTTLINKFDNIQSFLKVMPLIGVNAKFVEEYAFFKDSAKIADELRLIKSFARMGEPIADARRAMYIDAIRILGTNLSYDELKALADTFSLDENGNKLKKGKHGMRNFIINNVISNKRFHYLIRYGDPAHLHEIAKNEAVVKFVLGRIADIQKKQGQNGKNQIDRYYETCIGKDKGKSVSEKVDALTKIITGMNYDQFDKKRSVIEDTGRENAEREKFKKIISLYLTVIYHILKNIVNINARYVIGFHCVERDAQLYKEKGYDINLKKLEEKGFSSVTKLCAGIDETAPDKRKDVEKEMAERAKESIDSLESANPKLYANYIKYSDEKKAEEFTRQINREKAKTALNAYLRNTKWNVIIREDLLRIDNKTCTLFRNKAVHLEVARYVHAYINDIAEVNSYFQLYHYIMQRIIMNERYEKSSGKVSEYFDAVNDEKKYNDRLLKLLCVPFGYCIPRFKNLSIEALFDRNEAAKFDKEKKKVSGNS"}},
  "key": {"[1]": {"system": "CD46", "experiment": "Cycloheximide flow cytometric chase assay of CD46 protein degradation", "assay_type": "cell-based", "details": "primary human T cells"}, "[2]": {"system": "transgenic GFP reporter", "experiment": "crRNA-guided knockdown of a transgenic GFP reporter in primary human T cells", "assay_type": "cell-based", "details": "lentivirally-integrated"}},
  "data": [
    {"molecule": "C[C@@H]1C[C@@H]([C@H](O)CC2CC(=O)NC(=O)C2)C(=O)[C@@H](C)C1", "note": "[CHX, cycloheximide]", "values": [
      {"measurement": "CD46 expression after CHX addition", "setting": "[1]", "result": "did not reach half-maximal expression prior to T cell apoptosis"}
    ]},
    {"molecule": "B1", "values": [
      {"measurement": "functional activity: knockdown of GFP reporter", "setting": "[2]", "result": "confirmed the functional activity"}
    ]}
  ]
}
